Results: PubChem BioAssay (NCI)
Where “and” joins values, the source holds several entries; their conditions need not be identical. Identical values can stand only once.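 Test compounds were applied to cells in 96-well plates for 48 hours at 5 doses. GI50 marks 50% less growth. At the TGI there is no net growth.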

Each compound was assayed on HOP-62 NSCLC (assay: DTP human tumour cell line panel, 48 h).

Structure (SMILES) | GI50 | TGI
CCC1CN2C(=N1)c1ccccc1-c1cc(Cl)ccc12 (stereo unspecified) | 2.97 µM | 8.87 µM
CC1(N)CCN(c2cccnc2NC(=O)c2nc(-c3ncccc3C(F)(F)F)cnc2N)CC1 | 37.5 µM | > 100 µM
CC[C@]1(Cc2ccc(OC)c(OC)c2)C=[N+]([O-])O[C@H](OC2CCCC2(c2ccccc2)c2ccccc2)[C@@H]1OC(C)=O (stereo partly specified) | – | 29.4 µM
COc1ccc2c(c1)nnn1c3ncccc3c(N=O)c21 | 7.51 µM | 21.5 µM

These compounds were tested on HOP-92 NSCLC (assay: DTP human tumour cell line panel, 48 h).

Structure (SMILES) | TGI | GI50
CC[C@]1(Cc2ccc(OC)c(OC)c2)C=[N+]([O-])O[C@H](OC2CCCC2(c2ccccc2)c2ccccc2)[C@@H]1OC(C)=O (stereo partly specified) | 54.7 µM | –
COc1ccc2c(c1)nnn1c3ncccc3c(N=O)c21 | – | 0.0424 µM and 0.117 µM

The compounds below were run on HS 578T breast (assay: DTP human tumour cell line panel, 48 h).

Structure (SMILES) | GI50 | TGI
CCC1CN2C(=N1)c1ccccc1-c1cc(Cl)ccc12 (stereo unspecified) | 6.58 µM | 34.5 µM
CC1(N)CCN(c2cccnc2NC(=O)c2nc(-c3ncccc3C(F)(F)F)cnc2N)CC1 | 38.5 µM | > 100 µM
CC[C@]1(Cc2ccc(OC)c(OC)c2)C=[N+]([O-])O[C@H](OC2CCCC2(c2ccccc2)c2ccccc2)[C@@H]1OC(C)=O (stereo partly specified) | – | 46.5 µM
COc1ccc2c(c1)nnn1c3ncccc3c(N=O)c21 | 1.17 µM and 11.5 µM | –

Each compound was assayed on HT29 colon (assay: DTP human tumour cell line panel, 48 h).

Structure (SMILES) | GI50 | TGI
CCC1CN2C(=N1)c1ccccc1-c1cc(Cl)ccc12 (stereo unspecified) | 2.01 µM | 7.11 µM
CC1(N)CCN(c2cccnc2NC(=O)c2nc(-c3ncccc3C(F)(F)F)cnc2N)CC1 | 19.6 µM | > 100 µM
CC[C@]1(Cc2ccc(OC)c(OC)c2)C=[N+]([O-])O[C@H](OC2CCCC2(c2ccccc2)c2ccccc2)[C@@H]1OC(C)=O (stereo partly specified) | – | 4.55 µM
COc1ccc2c(c1)nnn1c3ncccc3c(N=O)c21 | 0.622 µM and 1.2 µM | –

The compounds below were run on IGROV1 ovarian (assay: DTP human tumour cell line panel, 48 h).

Structure (SMILES) | GI50 | TGI
CCC1CN2C(=N1)c1ccccc1-c1cc(Cl)ccc12 (stereo unspecified) | 2.29 µM | 15.1 µM
CC1(N)CCN(c2cccnc2NC(=O)c2nc(-c3ncccc3C(F)(F)F)cnc2N)CC1 | 3.67 µM | > 100 µM
CC[C@]1(Cc2ccc(OC)c(OC)c2)C=[N+]([O-])O[C@H](OC2CCCC2(c2ccccc2)c2ccccc2)[C@@H]1OC(C)=O (stereo partly specified) | – | 10.6 µM
COc1ccc2c(c1)nnn1c3ncccc3c(N=O)c21 | 0.114 µM and 1.09 µM | –

These compounds were tested on K-562 leukemia (assay: DTP human tumour cell line panel, 48 h).

Structure (SMILES) | GI50 | TGI
CCC1CN2C(=N1)c1ccccc1-c1cc(Cl)ccc12 (stereo unspecified) | 2.39 µM | 7.1 µM
CC1(N)CCN(c2cccnc2NC(=O)c2nc(-c3ncccc3C(F)(F)F)cnc2N)CC1 | 22.3 µM | > 100 µM
CC[C@]1(Cc2ccc(OC)c(OC)c2)C=[N+]([O-])O[C@H](OC2CCCC2(c2ccccc2)c2ccccc2)[C@@H]1OC(C)=O (stereo partly specified) | – | > 27.7 µM

Each compound was assayed on KM12 colon (assay: DTP human tumour cell line panel, 48 h).

Structure (SMILES) | GI50 | TGI
CCC1CN2C(=N1)c1ccccc1-c1cc(Cl)ccc12 (stereo unspecified) | 3.18 µM | 12.5 µM
CC1(N)CCN(c2cccnc2NC(=O)c2nc(-c3ncccc3C(F)(F)F)cnc2N)CC1 | 0.413 µM | > 100 µM
CC[C@]1(Cc2ccc(OC)c(OC)c2)C=[N+]([O-])O[C@H](OC2CCCC2(c2ccccc2)c2ccccc2)[C@@H]1OC(C)=O (stereo partly specified) | – | 8.89 µM
COc1ccc2c(c1)nnn1c3ncccc3c(N=O)c21 | 1.03 µM and 3.02 µM | 6.91 µM and 13.5 µM

What follows are compounds tested on LOX IMVI melanoma (assay: DTP human tumour cell line panel, 48 h).

Structure (SMILES) | GI50 | TGI
CCC1CN2C(=N1)c1ccccc1-c1cc(Cl)ccc12 (stereo unspecified) | 1.81 µM | 4.44 µM
CC1(N)CCN(c2cccnc2NC(=O)c2nc(-c3ncccc3C(F)(F)F)cnc2N)CC1 | 21.5 µM | 53.4 µM
CC[C@]1(Cc2ccc(OC)c(OC)c2)C=[N+]([O-])O[C@H](OC2CCCC2(c2ccccc2)c2ccccc2)[C@@H]1OC(C)=O (stereo partly specified) | – | 6.47 µM
COc1ccc2c(c1)nnn1c3ncccc3c(N=O)c21 | 0.799 µM and 0.552 µM | 7.06 µM and 2.56 µM

What follows are compounds tested on M14 melanoma (assay: DTP human tumour cell line panel, 48 h).

Structure (SMILES) | GI50 | TGI
CCC1CN2C(=N1)c1ccccc1-c1cc(Cl)ccc12 (stereo unspecified) | 3.13 µM | 10.4 µM
CC1(N)CCN(c2cccnc2NC(=O)c2nc(-c3ncccc3C(F)(F)F)cnc2N)CC1 | 25.9 µM | 80.3 µM
CC[C@]1(Cc2ccc(OC)c(OC)c2)C=[N+]([O-])O[C@H](OC2CCCC2(c2ccccc2)c2ccccc2)[C@@H]1OC(C)=O (stereo partly specified) | – | 14.9 µM
COc1ccc2c(c1)nnn1c3ncccc3c(N=O)c21 | 1.57 µM and 3.44 µM | –

The compounds below were run on MALME-3M melanoma (assay: DTP human tumour cell line panel, 48 h).

Structure (SMILES) | GI50 | TGI
CCC1CN2C(=N1)c1ccccc1-c1cc(Cl)ccc12 (stereo unspecified) | 2.8 µM | 8.15 µM
CC1(N)CCN(c2cccnc2NC(=O)c2nc(-c3ncccc3C(F)(F)F)cnc2N)CC1 | 17.6 µM | 36.4 µM
CC[C@]1(Cc2ccc(OC)c(OC)c2)C=[N+]([O-])O[C@H](OC2CCCC2(c2ccccc2)c2ccccc2)[C@@H]1OC(C)=O (stereo partly specified) | – | 4.83 µM
COc1ccc2c(c1)nnn1c3ncccc3c(N=O)c21 | 0.769 µM and 1.5 µM | 5.77 µM and 5.63 µM

Each compound was assayed on MCF7 breast (assay: DTP human tumour cell line panel, 48 h).

Structure (SMILES) | GI50 | TGI
CCC1CN2C(=N1)c1ccccc1-c1cc(Cl)ccc12 (stereo unspecified) | 2.45 µM | 14.1 µM
CC1(N)CCN(c2cccnc2NC(=O)c2nc(-c3ncccc3C(F)(F)F)cnc2N)CC1 | 26.2 µM | > 100 µM
CC[C@]1(Cc2ccc(OC)c(OC)c2)C=[N+]([O-])O[C@H](OC2CCCC2(c2ccccc2)c2ccccc2)[C@@H]1OC(C)=O (stereo partly specified) | – | 8 µM
COc1ccc2c(c1)nnn1c3ncccc3c(N=O)c21 | 0.132 µM and 0.336 µM | 0.814 µM and 2.21 µM

What follows are compounds tested on MDA-MB-231 breast (assay: DTP human tumour cell line panel, 48 h).

Structure (SMILES) | GI50 | TGI
CCC1CN2C(=N1)c1ccccc1-c1cc(Cl)ccc12 (stereo unspecified) | 3.4 µM | 25.4 µM
CC1(N)CCN(c2cccnc2NC(=O)c2nc(-c3ncccc3C(F)(F)F)cnc2N)CC1 | 27.8 µM | > 100 µM
CC[C@]1(Cc2ccc(OC)c(OC)c2)C=[N+]([O-])O[C@H](OC2CCCC2(c2ccccc2)c2ccccc2)[C@@H]1OC(C)=O (stereo partly specified) | – | > 41.3 µM
COc1ccc2c(c1)nnn1c3ncccc3c(N=O)c21 | 1.26 µM and 1.88 µM | 12.7 µM and 6.41 µM

These compounds were tested on MDA-MB-435 (assay: DTP human tumour cell line panel, 48 h).

Structure (SMILES) | GI50 | TGI
CCC1CN2C(=N1)c1ccccc1-c1cc(Cl)ccc12 (stereo unspecified) | 4.39 µM | 16.2 µM
CC1(N)CCN(c2cccnc2NC(=O)c2nc(-c3ncccc3C(F)(F)F)cnc2N)CC1 | 41.6 µM | > 100 µM
CC[C@]1(Cc2ccc(OC)c(OC)c2)C=[N+]([O-])O[C@H](OC2CCCC2(c2ccccc2)c2ccccc2)[C@@H]1OC(C)=O (stereo partly specified) | – | 7 µM
COc1ccc2c(c1)nnn1c3ncccc3c(N=O)c21 | 1.94 µM and 2.05 µM | 9.7 µM and 12.4 µM

The compounds below were run on MOLT-4 leukemia (assay: DTP human tumour cell line panel, 48 h).

Structure (SMILES) | GI50 | TGI
CCC1CN2C(=N1)c1ccccc1-c1cc(Cl)ccc12 (stereo unspecified) | 2.51 µM | 7.16 µM
CC1(N)CCN(c2cccnc2NC(=O)c2nc(-c3ncccc3C(F)(F)F)cnc2N)CC1 | 13.9 µM | 69.7 µM
CC[C@]1(Cc2ccc(OC)c(OC)c2)C=[N+]([O-])O[C@H](OC2CCCC2(c2ccccc2)c2ccccc2)[C@@H]1OC(C)=O (stereo partly specified) | – | > 23.8 µM
COc1ccc2c(c1)nnn1c3ncccc3c(N=O)c21 | 0.0094 µM and 0.0123 µM | –

These compounds were tested on NCI-H226 lung (assay: DTP human tumour cell line panel, 48 h).

Structure (SMILES) | GI50 | TGI
CCC1CN2C(=N1)c1ccccc1-c1cc(Cl)ccc12 (stereo unspecified) | 1.81 µM | 4.86 µM
CC1(N)CCN(c2cccnc2NC(=O)c2nc(-c3ncccc3C(F)(F)F)cnc2N)CC1 | 35.9 µM | > 100 µM
COc1ccc2c(c1)nnn1c3ncccc3c(N=O)c21 | 4.14 µM and 11.6 µM | 13.1 µM and 47.7 µM

Each compound was assayed on NCI-H23 lung (assay: DTP human tumour cell line panel, 48 h).

Structure (SMILES) | GI50 | TGI
CCC1CN2C(=N1)c1ccccc1-c1cc(Cl)ccc12 (stereo unspecified) | 3.78 µM | 15.2 µM
CC1(N)CCN(c2cccnc2NC(=O)c2nc(-c3ncccc3C(F)(F)F)cnc2N)CC1 | 49.5 µM | > 100 µM
